Converted amounts (≈) assume the structure as drawn.

This is an account of results in patent US4983328A, “N-(4-(3-aminopropyl)aminobutyl)-2-(ω-gua nidino-fatty-acid-amido(-2-substituted-ethanamide, salt thereof, and process for preparation thereof” (Bristol-Myers Company, priority 1981, dated 1991).

The nature of data set [1]: cumulative toxicity in mice (maximum tolerated dose, once a day for 6 consecutive days). The note with it: mouse, in vivo, ip, i.p. once a day for 6 consecutive days, total dose, read-out: Maximum Tolerated Dose (total dose not causing death). Here is the method: (§1) In Table 8 median lethal doses (LD50) of typical compounds of this invention are shown, measured in mice upon single intraperitoneal administration, as well as maximum tolerated doses in terms of total dose when a fixed amount per unit body weight was administered intraperitoneally to mice once a day for 6 consecutive days.
**Maximum value of the total dose not causing death when a fixed amount
per unit body weight is administered to mice once a day for 6 consecutive

For data set [2], the system named is mouse leukemia L-1210 cells. The data set is described as follows: growth inhibitory activity to cancer cells in vitro (L-1210, 48 hours). The data set is classed as cell-based. The note with it: for inhibition at 2.5 µg/mL: L1210, 2.5 mcg/ml; for inhibition at 2.5 µg/mL / inhibition at 5 µg/mL / inhibition at 10 µg/mL / inhibition at 20 µg/mL / inhibition at 1.25 µg/mL / inhibition at 40 µg/mL / inhibition at 80 µg/mL: read-out: Growth inhibition (%), (1-T/C) × 100; for inhibition at 5 µg/mL: L1210, 5 mcg/ml; for inhibition at 10 µg/mL: L1210, 10 mcg/ml; for inhibition at 20 µg/mL: L1210, 20 mcg/ml; for IC50: L1210, L-1210 cells, read-out: 50% inhibitory concentration; for inhibition at 1.25 µg/mL: L1210, 1.25 mcg/ml; for inhibition at 40 µg/mL: L1210, 40 mcg/ml; for inhibition at 80 µg/mL: L1210, 80 mcg/ml. Here is the method: DBA/2 mice were implanted with 10^5 mouse leukemia L-1210 cells. The ascites collected asceptically from the mice after 4 days of feeding was washed three times with physiological saline to obtain L-1210 cells, which was then suspended in RPMI 1640 culture medium [G. E. Moore, Journal of the American Medical Association, Vol. 199, 519 (1967); H. J. Morton, In Vitro, Vol. 6, 89 (1970)] to which 10% fetal calf serum and 5 μM 2-mercaptoethanol had been added, and the resulting suspension was diluted to 5×10^4 L-1210 cells per 0.9 ml. A microplate carrying 0.9 ml of the cell suspension and 0.1 ml of the culture medium containing the sample being tested was kept in a carbon dioxide incubator at 37° C. After 48 hours of cultivation, the number of cells was measured by means of a Coulter Counter (Coulter Electronics, Inc., U.S.A.) to obtain the growth inhibition (%)=(1--T/C )×100=[1-(number of grown cells in medium containing sample/(number of grown cells in control medium)]×100. The 50% growth inhibitory concentration was calculated from the values of growth inhibition at varied sample concentrations. The results of tests on typical compounds of this invention for the growth inhibition of L-1210 cells were as shown in Table 6.

Data set [3] is described as follows: acute toxicity in mice (single intraperitoneal administration). The note with it: mouse, in vivo, ip; mice, single i.p.; read-out: LD50 (median lethal dose on single administration). Here is the method: as §1
*Median lethal dose on single administration.

As for `N=C(N)NCCCC(=O)NC(O)C(=O)NCCCCNCCCN` (stereo not drawn) [Compound 1, N-[4-(3-aminopropyl)aminobutyl]-2-(4-guanidinobutanamido)-2-hydroxyethanamide], in data set [1], the MTD was greater than 300 mg/kg. In data set [2], the inhibition at 2.5 µg/mL stood at 52.2%, the inhibition at 5 µg/mL worked out at 89.3%, the inhibition at 10 µg/mL was 101% and the inhibition at 20 µg/mL is 100%. In addition, the IC50 in data set [2] turned out to be 2.4 µg/mL (≈ 6.95 µM). Besides, the LD50 in data set [3] was greater than 50 mg/kg.
Regarding `N=C(N)NCCCCC(=O)NC(O)C(=O)NCCCCNCCCN` (stereo not drawn) [Compound 2, N-[4-(3-aminopropyl)aminobutyl]-2-(5-guanidinopentanamido)-2-hydroxyethanamide], in data set [1], the MTD is greater than 300 mg/kg. Also, in data set [2], the inhibition at 1.25 µg/mL was 9.6%, the inhibition at 2.5 µg/mL came to 30.5%, the inhibition at 5 µg/mL is 46.9% and the inhibition at 10 µg/mL was 69.5%. In data set [2], the inhibition at 20 µg/mL turned out to be 77.6%, the inhibition at 40 µg/mL came to 79.6%, the inhibition at 80 µg/mL amounted to 79.6% and the IC50 amounted to 5 µg/mL (≈ 13.9 µM). Moreover, the LD50 in data set [3] was greater than 50 mg/kg.
`N=C(N)NCCCCCC=CC(=O)NC(O)C(=O)NCCCCNCCCN` (stereo not drawn) [Compound 17, N-[4-(3-aminopropyl)aminobutyl]-2-(8-guanidino-2-octenamido)-2-hydroxyethanamide]: the MTD in data set [1] was greater than 75 mg/kg. Moreover, in data set [2], the inhibition at 1.25 µg/mL amounted to 2.1%, the inhibition at 2.5 µg/mL amounted to 4.5%, the inhibition at 5 µg/mL came to 13.3% and the inhibition at 10 µg/mL amounted to 16.5%. Further, in data set [2], the inhibition at 20 µg/mL worked out at 33.7%, the inhibition at 40 µg/mL turned out to be 52.5% and the IC50 turned out to be 70 µg/mL (≈ 175 µM). Moreover, the LD50 in data set [3] lay in the range of 12.5 to 25 mg/kg.
`CCOC(NC(=O)CCCCCCNC(=N)N)C(=O)NCCCCNCCCN` (stereo not drawn) [Compound 12, N-[4-(3-aminopropyl)aminobutyl]-2-(7-guanidinoheptanamido)-2-ethoxyethanamide]: the MTD in data set [1] was greater than 75 mg/kg. Also, in data set [2], the inhibition at 2.5 µg/mL was 21.5%, the inhibition at 5 µg/mL is 31.1%, the inhibition at 10 µg/mL was 38.4% and the inhibition at 20 µg/mL stood at 47.3%. Further, in data set [2], the inhibition at 40 µg/mL turned out to be 58.6%, the inhibition at 80 µg/mL came to 73.5% and the IC50 stood at 21 µg/mL (≈ 50.5 µM). The LD50 in data set [3] lay in the range of 12.5 to 25 mg/kg.
For the molecule `N=C(N)NCCCCCC(=O)NC(O)C(=O)NCCCCNCCCN` (stereo not drawn) [Compound 3, N-[4-(3-aminopropyl)aminobutyl]-2-(6-guanidinohexanamido)-2-hydroxyethanamide], the MTD in data set [1] was greater than 300 mg/kg. Also, in data set [2], the inhibition at 1.25 µg/mL is 20.6%, the inhibition at 2.5 µg/mL is 36.7%, the inhibition at 5 µg/mL came to 64.2% and the inhibition at 10 µg/mL is 81.6%. For the same molecule, in data set [2], the inhibition at 20 µg/mL is 86.7% and the IC50 amounted to 3.7 µg/mL (≈ 9.91 µM). In addition, in data set [3], the LD50 was greater than 50 mg/kg.
`N=C(N)NCCCCCC(O)CC(=O)NC(O)C(=O)NCCCCNCCCN` (stereo not drawn) [Compound 20, N-[4-(3-aminopropyl)aminobutyl]-2-(8-guanidino-3-hydroxyoctanamido)-2-hydroxyethanamide]: the MTD in data set [1] is greater than 300 mg/kg. Further, in data set [2], the inhibition at 1.25 µg/mL came out at 17.2%, the inhibition at 2.5 µg/mL turned out to be 20.1%, the inhibition at 5 µg/mL came to 28.9% and the inhibition at 10 µg/mL came to 30.7%. Moreover, in data set [2], the inhibition at 20 µg/mL was found to be 45.7% and the IC50 turned out to be 27 µg/mL (≈ 64.7 µM). For the same molecule, the LD50 in data set [3] was greater than 50 mg/kg.
